# Measured values: patent US20130096105A1, “ArylSulfonamide Based Matrix Metalloprotease Inhibitors” (NOVARTIS AG, priority 2008, published 2013)
# Assays:
# Collagenase-3 (MMP-13) = Collagenase-3 (MMP-13) (Homo sapiens, UniProt P45452); experiment: Collagenase-3 (MMP-13) inhibitory activity, fluorogenic peptide substrate cleavage; format: biochemical; conditions: read-out: MMP13 IC50
# Summary of the method: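 Recombinant pro-MMP-13 activated with 1 mM APMA; inhibitor preincubated 60 min, then 5 μM MCA-Lys-Pro-Leu-Gly-Leu-Dpa-Ala-Arg-NH2 added in Tris-Cl pH 7.5 buffer with Zn2+, Ca2+, Brij-35, 1.0% DMSO, 20-25 °C. Fluorescence (ex 325/em 405 nm) read after 60 min; IC50 versus uninhibited control.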
# Gelatinase (MMP-2) = target: T1, Gelatinase (MMP-2) (Homo sapiens, UniProt P08253); experiment: Gelatinase (MMP-2) inhibitory activity, fluorogenic peptide substrate cleavage; format: biochemical; conditions: read-out: MMP02 IC50
# T1 sequence (P08253 110-660): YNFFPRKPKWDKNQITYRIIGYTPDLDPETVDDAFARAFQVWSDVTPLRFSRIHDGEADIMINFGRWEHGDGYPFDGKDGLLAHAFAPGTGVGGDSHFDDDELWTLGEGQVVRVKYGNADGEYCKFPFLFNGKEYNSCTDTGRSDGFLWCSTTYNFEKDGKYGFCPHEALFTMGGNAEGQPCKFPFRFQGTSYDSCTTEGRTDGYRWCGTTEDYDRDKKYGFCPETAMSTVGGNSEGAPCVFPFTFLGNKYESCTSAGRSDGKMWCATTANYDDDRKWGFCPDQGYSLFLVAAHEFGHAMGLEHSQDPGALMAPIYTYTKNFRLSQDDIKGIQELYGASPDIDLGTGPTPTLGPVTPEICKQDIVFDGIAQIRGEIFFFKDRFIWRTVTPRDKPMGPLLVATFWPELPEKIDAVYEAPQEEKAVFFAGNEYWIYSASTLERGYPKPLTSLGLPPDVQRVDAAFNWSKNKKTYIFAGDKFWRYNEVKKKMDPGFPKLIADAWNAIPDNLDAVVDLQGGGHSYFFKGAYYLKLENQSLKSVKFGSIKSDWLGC
# Summary of the method: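 Fluorogenic assay with MCA-Lys-Pro-Leu-Gly-Leu-Dpa-Ala-Arg-NH2 at 5 μM in Tris-Cl pH 7.5 buffer with ZnCl2, CaCl2, Brij-35 and 1.0% DMSO, 20-25 °C. Enzyme preincubated with inhibitor 60 min; fluorescence (ex 325/em 405 nm) read 60 min after substrate addition. IC50 relative to uninhibited control.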
Compound,IC50 (Collagenase-3 (MMP-13)),IC50 (Gelatinase (MMP-2))
"NS(=O)(=O)c1cc(C(=O)c2ccc3c(-c4ccccc4)c[nH]c3c2)ccc1Cl [Example 118, 2-Chloro-5-(3-phenyl-1H-indole-6-carbonyl)-benzenesulfonamide]",1030 nM,2000 nM
"COc1ccc(-c2c[nH]c3cc(C(=O)c4ccc(Cl)c(S(N)(=O)=O)c4)ccc23)cc1 [Example 119, 2-Chloro-5-[3-(4-methoxy-phenyl)-1H-indole-6-carbonyl]-benzenesulfonamide]",6040 nM,24000 nM
"CS(=O)(=O)c1cccc(-c2c[nH]c3cc(C(=O)c4ccc(Cl)c(S(N)(=O)=O)c4)ccc23)c1 [Example 123, 2-Chloro-5-[3-(3-methanesulfonyl-phenyl)-1H-indole-6-carbonyl]-benzenesulfonamide]",390 nM,5020 nM
"CS(=O)(=O)c1ccc(-c2c[nH]c3cc(C(=O)c4ccc(Cl)c(S(N)(=O)=O)c4)ccc23)cc1 [Example 124, 2-Chloro-5-[3-(4-methanesulfonyl-phenyl)-1H-indole-6-carbonyl]-benzenesulfonamide]",540 nM,19700 nM
"NS(=O)(=O)c1cc(C(=O)c2ccc3c(-c4ccc(-c5ccccc5)cc4)c[nH]c3c2)ccc1Cl [Example 126, 5-(3-Biphenyl-4-yl-1H-indole-6-carbonyl)-2-chloro-benzenesulfonamide]",10000 nM,22800 nM
"NS(=O)(=O)c1cc(C(=O)c2ccc3c(-c4cncnc4)c[nH]c3c2)ccc1Cl [Example 131, 2-Chloro-5-(3-pyrimidin-5-yl-1H-indole-6-carbonyl)-benzenesulfonamide]",195 nM,4000 nM
"NS(=O)(=O)c1cc(C(=O)c2ccc3c(-c4ccc(C(=O)N5CCOCC5)cc4)c[nH]c3c2)ccc1Cl [Example 132, 2-Chloro-5-{3-[4-(morpholine-4-carbonyl)-phenyl]-1H-indole-6-carbonyl}-benzenesulfonamide]",730 nM,16000 nM
"Cc1noc(C)c1-c1c[nH]c2cc(C(=O)c3ccc(Cl)c(S(N)(=O)=O)c3)ccc12 [Example 133, 2-Chloro-5-[3-(3,5-dimethyl-isoxazol-4-yl)-1H-indole-6-carbonyl]-benzenesulfonamide]",300 nM,23000 nM
"NS(=O)(=O)c1cc(C(=O)c2ccc3c(-c4ccnc(Cl)c4)c[nH]c3c2)ccc1Cl [Example 136, 2-Chloro-5-[3-(2-chloro-pyridin-4-yl)-1H-indole-6-carbony]-benzenesulfonamide]",250 nM,18000 nM
"NS(=O)(=O)c1cc(C(=O)c2ccc3c(-c4ccnc(C5CC5)c4)c[nH]c3c2)ccc1Cl [Example 139, 2-Chloro-5-[3-(2-cyclopropyl-pyridin-4-yl)-1H-indole-6-carbonyl]-benzenesulfonamide]",68 nM,4150 nM
"CN(C)CCOc1cc(-c2c[nH]c3cc(C(=O)c4ccc(Cl)c(S(N)(=O)=O)c4)ccc23)ccn1 [Example 142, 2-Chloro-5-{3-[2-(2-dimethylamino-ethoxy)-pyridin-4-yl]-1H-indole-6-carbonyl}-benzenesulfonamide]",17 nM,200 nM

# Other lines, results leading:
IC50 (Collagenase-3 (MMP-13)),IC50 (Gelatinase (MMP-2)),Compound
3130 nM,3310 nM,"Cn1ccc2cc(C(=O)c3ccc(Cl)c(S(N)(=O)=O)c3)ccc21 [Example 114, 2-Chloro-5-(1-methyl-1H-indole-5-carbonyl)-benzenesulfonamide]"
178 nM,218 nM,"NS(=O)(=O)c1cc(C(=O)c2ccc3cc[nH]c3c2)ccc1Cl [Example 115, 2-Chloro-5-(1H-indole-6-carbonyl)-benzenesulfonamide]"
23000 nM,26700 nM,"CC(C)CCn1ccc2cc(C(=O)c3ccc(Cl)c(S(N)(=O)=O)c3)ccc21 [Example 117, 2-Chloro-5-[1-(3-methyl-butyl)-1H-indole-5-carbonyl]benzenesulfonamide]"
950 nM,1900 nM,"NS(=O)(=O)c1cc(C(=O)c2ccc3c(-c4ccc(F)cc4)c[nH]c3c2)ccc1Cl [Example 120, 2-Chloro-5-[3-(4-fluoro-phenyl)-1H-indole-6-carbonyl]-benzenesulfonamide]"
590 nM,3900 nM,"CC(=O)c1cccc(-c2c[nH]c3cc(C(=O)c4ccc(Cl)c(S(N)(=O)=O)c4)ccc23)c1 [Example 121, 5-[3-(3-Acetyl-phenyl)-1H-indole-6-carbonyl]-2-chloro-benzenesulfonamide]"
1450 nM,12500 nM,"CC(=O)c1ccc(-c2c[nH]c3cc(C(=O)c4ccc(Cl)c(S(N)(=O)=O)c4)ccc23)cc1 [Example 122, 5-[3-(4-Acetyl-phenyl)-1H-indole-6-carbonyl]-2-chloro-benzenesulfonamide]"
1010 nM,> 30000 nM,"CCS(=O)(=O)c1ccc(-c2c[nH]c3cc(C(=O)c4ccc(Cl)c(S(N)(=O)=O)c4)ccc23)cc1 [Example 125, 2-Chloro-5-[3-(4-ethanesulfonyl-phenyl)-1H-indole-6-carbonyl]-benzenesulfonamide]"
1650 nM,2950 nM,"NS(=O)(=O)c1cc(C(=O)c2ccc3c(-c4ccc5[nH]ccc5c4)c[nH]c3c2)ccc1Cl [Example 129, 5-(1H,1′H-[3,5′]Biindolyl-6-carbonyl)-2-chloro-benzenesulfonamide]"
240 nM,2620 nM,"NS(=O)(=O)c1cc(C(=O)c2ccc3c(-c4cccnc4)c[nH]c3c2)ccc1Cl [Example 130, 2-Chloro-5-(3-pyridin-3-yl-1H-indole-6-carbonyl)benzenesulfonamide]"
100 nM,23000 nM,"COc1cc(-c2c[nH]c3cc(C(=O)c4ccc(Cl)c(S(N)(=O)=O)c4)ccc23)c(Cl)cn1 [Example 134, 2-Chloro-5-[3-(5-chloro-2-methoxy-pyridin-4-yl)-1H-indole-6-carbonyl]-benzenesulfonamide]"
90 nM,1050 nM,"NS(=O)(=O)c1cc(C(=O)c2ccc3c(-c4ccncc4)c[nH]c3c2)ccc1Cl [Example 135, 2-Chloro-5-(3-pyridin-4-yl-1H-indole-6-carbonyl)-benzenesulfonamide]"
41 nM,3450 nM,"Cc1cc(-c2c[nH]c3cc(C(=O)c4ccc(Cl)c(S(N)(=O)=O)c4)ccc23)ccn1 [Example 137, 2-Chloro-5-[3-(2-methyl-pyridin-4-yl)-1H-indole-6-carbonyl]-benzenesulfonamide]"
60 nM,3550 nM,"CCc1cc(-c2c[nH]c3cc(C(=O)c4ccc(Cl)c(S(N)(=O)=O)c4)ccc23)ccn1 [Example 138, 2-Chloro-5-[3-(2-ethyl-pyridin-4-yl)-1H-indole-6-carbonyl]-benzenesulfonamide]"
7 nM,360 nM,"COCCCc1cc(-c2c[nH]c3cc(C(=O)c4ccc(Cl)c(S(N)(=O)=O)c4)ccc23)ccn1 [Example 140, 2-Chloro-5-{3-[2-(3-methoxy-propyl)-pyridin-4-yl]-1H-indole-6-carbonyl}-benzenesulfonamide]"
20 nM,1100 nM,"NS(=O)(=O)c1cc(C(=O)c2ccc3c(-c4ccnc(CCCN5CCOCC5)c4)c[nH]c3c2)ccc1Cl [Example 141, 2-Chloro-5-{3-[2-(3-morpholin-4-yl-propyl)-pyridin-4-yl]-1H-indole-6-carbonyl}-benzenesulfonamide]"
